“Also recorded” adds a separate entry of the source.
How the values were obtained:
[1] = tested on: rats with L5-L6 spinal nerves ligation; assay: L5-L6 spinal nerves ligature model, von Frey paw withdrawal threshold; type: in vivo, rat; details: for AUC of the antiallodynic effect across 8 h: mean±SEM, VEH 36.24±1.8 g; for AUC antiallodynic effect compared with GBP 100 mg/kg / AUC antiallodynic effect compared with MLT 150 mg/kg: doses of 20 and 40 mg/kg; for tactile allodynia in L5-L6 nerve ligated rats / analgesic effect in allodynic rats: summary statement; for tactile allodynia in L5-L6 nerve ligated rats: hindpaw withdrawal threshold to mechanical stimulation; for analgesic effect in allodynic rats: hindpaw withdrawal threshold vs untreated allodynic rats
Procedure: (§1) Animals: Wistar rats (150-250 g, Charles-River Saint-Constant, Quebec, Canada) were used for the formalin test, hot plate test and L5-L6 spinal nerves ligature model. The animals were housed at constant room temperature and humidity under a 12 h light/dark cycle (lights on at 7 AM). Food and water were available ad libitum.
L5-L6 Spinal Nerves Ligature: Nerve injury results in abnormal pain perception, known as neuropathic pain, which is associated with hyperalgesia (high pain sensibility) and allodynia (pain perception induced by innocuous stimuli) (Campbell and Meyer, 2006). The rat model for neuropathic pain develop by Kim and Chung (Kim and Chung, 1992) was used in which the L5 and L6 spinal nerves were ligated and two weeks later allodynia was measured by paw stimulation with von Frey filaments. Briefly, animals were anesthetized with a mixture of ketamine/xylazine/acepromazine (i.p.). Following surgical preparation and exposure of the dorsal vertebral column, the left L5 and L6 spinal nerves were exposed and tightly ligated with 3.0 chromic catgut suture distal to the dorsal root ganglion. For sham-operated rats, the nerves were exposed but not ligated. The incisions were closed using 3.0 vicryl sutures, and the animals were allowed to recover for 13 days.
On day 14 after surgery, rats were singularly placed in a test chamber (clear plastic, wire mesh-bottomed cage) and allowed to acclimatize for 30-40 min. Von Frey filaments (Stoelting, Wood Dale, Ill., USA) were used to measure the 50% paw withdrawal threshold using the up and down method by (Chaplan et al., 1994). […] Lifting of the paw indicated a positive response and prompted the use of the next weaker filament, whereas absence of paw withdrawal after 5 s indicated a negative response and prompted the next filament of increasing weight. This paradigm continued for four more measurements after the initial change of the behavioral response, or until five consecutive negative (assigned a score of 15 g), or four consecutive positive (assigned a score of 0.25 g) responses. The resulting score were used to calculate the 50% response threshold by using the formula proposed by Dixon et al., 1980.
Allodynia was considered to be present when paw withdrawal thresholds were less than 4 g. (Chaplan et al., 1994). All nerve-ligated rats were verified to be allodynic, responding to a stimulus of less than 4 g. Rats without allodynia were excluded. Following the determination of the basal response, tactile allodynia was assessed at 0.5, 1, 2, 3, 4, 5, 6, 7 and 8 h post-administration for each treatment below described.
[…] […] Another group of rats received only the vehicle (VEH) consisting on a 70% DMSO/saline solution (0.9% NaCl). All treatments were administered in a single subcutaneous injection with a volume of 1 ml. Rats were tested at 0 h (basal withdrawal threshold) and 0.5, 1, 2, 3, 4, 5, 6, 7 and 8 h post-treatment administration.
(§2) Statistical Analysis: Data analysis was done using SigmaPlot 12 (Systat Software, Inc.). Two-way ANOVA for repeated measures was used to analyze data from L5-L6 models using treatments (between) and testing time (within) as factors. One-way ANOVA was used to analyze AUC in the L5-L6 spinal nerves ligation model. One-way ANOVA was used for formalin and hot-plate tests. Post-hoc analyses were performed using Bonferroni t-test comparisons or Student-Newman-Keuls (SNK) test. All data are expressed as mean±Standard Error of the Mean (SEM). P<0.05 was considered significant.

[2] = target: T1, human MT2 receptor (Homo sapiens, UniProt P49286); assay: 2-[125I]iodomelatonin competition binding, human MT2 in CHO cells
T1 construct: expressed in transfected cells
T1 sequence (P49286 1-362): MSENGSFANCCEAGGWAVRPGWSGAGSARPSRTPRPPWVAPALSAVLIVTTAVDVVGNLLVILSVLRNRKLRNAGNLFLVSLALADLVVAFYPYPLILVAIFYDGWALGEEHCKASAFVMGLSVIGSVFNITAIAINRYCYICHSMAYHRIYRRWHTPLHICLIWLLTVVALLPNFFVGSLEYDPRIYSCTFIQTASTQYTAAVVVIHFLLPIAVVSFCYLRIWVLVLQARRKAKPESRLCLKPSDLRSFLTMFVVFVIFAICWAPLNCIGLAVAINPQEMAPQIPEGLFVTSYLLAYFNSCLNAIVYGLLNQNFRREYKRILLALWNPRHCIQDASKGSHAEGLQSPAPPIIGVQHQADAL

[3] = tested on: Wistar rats; assay: formalin test; type: in vivo, rat; details: for licking time vs vehicle, first phase / licking time vs vehicle, second phase / licking time vs vehicle, total time: 30 min prior to test; for licking time compared to untreated rats: summary statement, dose not stated
Procedure: as §1
Formalin Test: Antinociception was assessed using the formalin test (Dubuisson and Dennis, 1977). Rats were placed in open Plexiglas observation chambers for 60 min to allow them to acclimatize to their surroundings; then they were removed for formalin administration. Rats were gently restrained while the dorsal surface of the right hindpaw was injected with […] of 1% formalin (37% formaldehyde solution further diluted in saline solution) with a 30-gauge needle. The animals were returned to the chambers and nociceptive behavior was observed immediately after formalin injection. Mirrors were placed in each chamber to enable unhindered observation. Licking/biting behavior directed to the formalin injected paw was scored in 5 min intervals considering number and duration of the licking. Cumulative behavior for the total duration of the test as well as the first (0-10 min) and second phase (20-50 min) was then analyzed (Sufka et al., 1998).The initial acute phase (0-10 min) was followed by a relatively short quiescent period, which was then followed by a prolonged tonic response (15-60 min). The first phase is considered to be the result of direct stimulation of nociceptors, whereas inflammation process contributes to phase 2 activity (Hunskaar and Hole, 1987). At the end of the experiment the rats were sacrificed in a CO2 chamber.
as §2

[4] = 20 mg/kg s.c., at 3 h (5b) or 5 h (5p) post-administration
[5] = 40 mg/kg s.c., at 2 h (5b) or 5 h (5p) post-administration

| SMILES | AUC of the antiallodynic effect across 8 h ([1]; 5 mg/kg s.c.) | AUC of the antiallodynic effect across 8 h ([1]; 10 mg/kg s.c.) | duration of effect on paw withdrawal threshold, post-administration ([1]; 20 mg/kg s.c.) | reduction of the mechanical allodynia above the threshold (4 g) ([1]; 20 mg/kg s.c.) | start of increase of paw withdrawal threshold, post-administration ([1]; 20 mg/kg s.c.) | highest increase in paw withdrawal threshold [1, 4] | AUC of the antiallodynic effect across 8 h ([1]; 20 mg/kg s.c.) | duration of effect on paw withdrawal threshold, post-administration ([1]; 40 mg/kg s.c.) | reduction of the mechanical allodynia above the threshold (4 g) ([1]; 40 mg/kg s.c.) | start of increase of paw withdrawal threshold, post-administration ([1]; 40 mg/kg s.c.) | highest increase in paw withdrawal threshold [1, 5] | AUC of the antiallodynic effect across 8 h ([1]; 40 mg/kg s.c.) | AUC antiallodynic effect compared with GBP 100 mg/kg [1] | AUC antiallodynic effect compared with MLT 150 mg/kg [1] | tactile allodynia in L5-L6 nerve ligated rats [1] | analgesic effect in allodynic rats [1] | licking time vs vehicle, first phase ([3]; 10 mg/kg) | licking time vs vehicle, first phase ([3]; 20 mg/kg s.c.) | licking time vs vehicle, second phase ([3]; 20 mg/kg s.c.) | licking time vs vehicle, total time ([3]; 20 mg/kg s.c.) | also measured |
| --- | --- | --- | --- | --- | --- | --- | --- | --- | --- | --- | --- | --- | --- | --- | --- | --- | --- | --- | --- | --- | --- |
| CC(=O)NCCN(c1ccc(F)cc1)c1cccc(Br)c1 [5p, N-{2-[(3-Bromophenyl)-4-fluorophenylamino]ethyl}acetamide] | 89.03 ± 6.33 g | 127.75 ± 12.08 g | up to 6 h | reduction of the mechanical allodynia | 1 h | 394 % from basal | 245.9 ± 19.9 g | up to 6 h | reduction of the mechanical allodynia | 1 h | 427.65 % from basal | 230.33 ± 17.69 g | comparable | greater antiallodynic effect | reduced allodynia; also recorded: reversed tactile allodynia | increased the analgesic effect | decrease in the licking time | decrease in the licking time; also recorded: decreased the licking time | decreased the licking time; also recorded: decrease of the licking time | reduction of the licking time; also recorded: decrease in the licking time; also recorded: decreased the licking time | duration of effect on paw withdrawal threshold, post-administration ([1]; 10 mg/kg s.c.): up to 3 h; start of increase of paw withdrawal threshold, post-administration ([1]; 10 mg/kg s.c.): 1 h; Ki ([2]; human MT2 stably expressed in CHO cells, calculated from IC50 by Cheng and Prusoff, read-out: MT2 pKi (converted)): 0.537 nM; licking time vs vehicle, second phase ([3]; 10 mg/kg): decreased the licking time; licking time vs vehicle, first phase ([3]; 40 mg/kg): decrease in the licking time; also recorded: decreased the licking time; licking time vs vehicle, second phase ([3]; 40 mg/kg): decreased the licking time; licking time vs vehicle, total time ([3]; 40 mg/kg): reduction of the licking time; also recorded: decreased the licking time; licking time compared to untreated rats [3]: significantly decreased |
| COc1cccc(N(CCNC(C)=O)c2ccccc2)c1 [5b, N-{2-[(3-Methoxyphenyl)-phenylamino]ethyl}acetamide] | 81.11 ± 4.8 g | 70.24 ± 4.23 g | up to 5 h | reduction of the mechanical allodynia above the threshold | 1 h | 419 % from basal | 219.12 ± 24.13 g | ≤ 6 h | reduction of the mechanical allodynia above the threshold | 0.5 h | 395 % from basal | 220.13 ± 13.65 g | comparable | superior to MLT | reversed tactile allodynia; also recorded: reduced allodynia | increased the analgesic effect | decrease in the licking time | decrease in the licking time; also recorded: decreased the licking time | decreased the licking time; also recorded: decrease of the licking time | reduction of the licking time; also recorded: decrease in the licking time; also recorded: decreased the licking time | MT2 affinity compared with melatonin [2]: better MT2 affinity than melatonin; MT2-selectivity ([2]; MT2 versus MT1): good MT2-selectivity; MT2 pKi ([2]; human MT2 stably expressed in CHO cells, calculated from IC50 by Cheng and Prusoff): 10.18; licking time vs vehicle, total time ([3]; 10 mg/kg): reduction of the licking time; licking time vs vehicle, first phase ([3]; 40 mg/kg): decrease in the licking time; also recorded: decreased the licking time; licking time vs vehicle, second phase ([3]; 40 mg/kg): decreased the licking time; licking time vs vehicle, total time ([3]; 40 mg/kg): reduction of the licking time; also recorded: decreased the licking time; licking time compared to untreated rats [3]: significantly decreased |

Reference: US20160221932A1, “Methods and Uses of Melatonin Ligands” (priority 2013, published 2016)
